Assay results taken from patent US10244759B2, “Use of forchlorfenuron for promoting plant growth” (KIM-C1 LLC, priority 2013, dated 2019).
Entries after “also recorded” stand apart in the source; their conditions may differ.

Key:
[1] = tested on: cotton seeds (G. hirsutum, FiberMax 9058); assay: Cotton seed soak, lateral root development (Example 1); type: in vivo, Gossypium hirsutum
Source text: Commercial cotton seeds (G. hirsutum, FiberMax 9058, Bayer CropScience) were submerged in tubs containing forchlorfenuron at concentrations of 0, 25, 50, 100, 250, 500, 1000, 4000 and 8000 ppm for 10 seconds. The seeds were then placed on paper towels on the lab bench and allowed to air dry. Six days after the seed soak, the seeds were planted in “conetainers” and placed in a greenhouse for one week. The soil was removed from the conetainer and the roots were washed by gently dipping the soil into a bucket of water. Roots were photographed and evaluated for lateral root development.

[2] = tested on: cotton (G. hirsutum, FiberMax 9058); assay: Cotton seedling spray, lateral root development and phytotoxicity (Example 2); type: in vivo, Gossypium hirsutum; conditions: seedlings sprayed 6 days after planting
Experimental: Commercial cotton seed (G. hirsutum, FiberMax 9058, Bayer CropScience) was planted in conetainers and grown for 6 days prior to spraying with a range of forchlorfenuron concentrations. The plants were grown an additional 5 days prior to washing out the roots. Initial concentrations (0, 5, 10, 15, 20, 25, 50, 100, 250, 500, 1000, and 2000 ppm) were evaluated.

[3] = tested on: Cotton plants (G. hirsutum, FiberMax 9180 B2F); assay: Cotton yield enhancement under abiotic and biotic stresses, boll count (Example 3); type: in vivo, Gossypium hirsutum; conditions: for number bolls: at harvest; for % increase over control: number bolls
Experimental: Cotton plants grown from commercial cotton seeds (G. hirsutum, FiberMax 9180 […], Bayer CropScience) were treated with forchlorfenuron at various stages of growth. […] Control plants were not treated at any stage of growth. At the time of harvest, cotton bolls on all plants were counted, and the percentages of bolls that were open and closed were calculated.

[4] = tested on: Broccoli plants (B. oleracea, var. Waltham 29); assay: Broccoli root length, stem length and ratio thereof (Example 4); type: in vivo, Brassica oleracea; conditions: for Root Length AB Spray / Root/Stem Ratio AB Spray / Shoot Length AB Spray / Root Length A Spray / Root/Shoot Ratio A Spray / Shoot Length A Spray: percentage of the untreated level, 60 days after planting
Experimental: Broccoli plants (B. oleracea, var. […] The root length and stem length were measured 60 days after planting and the ratio of root length to stem length was calculated for every plant.

Winter wheat [5] = assay: Wheat root dry weight after spray (Example 5); type: in vivo; conditions: dry weight 50 days after planting, untreated 0.85
Experimental: (§1) Plants were sprayed with 0, 2.5, 5, or 7.5 ppm forchlorfenuron, at the cotyledon growth stage in the case of broccoli or at stage 1 in the case of wheat (treatment A), and optionally again with 5 ppm forchlorfenuron three days thereafter (treatment B). The dry weights of the plant roots were measured 50 days after planting.

Broccoli = Broccoli root dry weight after spray (Example 5); type: in vivo; conditions: for root weight, Broccoli (AB spray) / root weight, Broccoli (A spray): dry weight 50 days after planting, untreated 0.69
Experimental: as §1

Winter wheat [6] = assay: Winter wheat seed treatment, root weight (Table 3); type: in vivo; conditions: untreated 0.91
[7] = cited from earlier work
[8] = pH range; cited from earlier work
[9] = treating G. hirsutum seeds or plants
[10] = 1st square spray, 5 ppm, Day 41
[11] = 2.5 ppm ai at cotyledon stage + 5 ppm 3 days after
[12] = 5 ppm ai at cotyledon stage + 5 ppm 3 days after
[13] = 7.5 ppm ai at cotyledon stage + 5 ppm 3 days after

SMILES: O=C(Nc1ccccc1)Nc1ccnc(Cl)c1 [forchlorfenuron, 1-(2-chloropyridin-4-yl)-3-phenylurea]
- rooting patterns / lateral root lengths ([1]; seed treatment 250 ppm vs 0 ppm, eight plants per treatment (FIG. 1)): clear differences in rooting patterns; also recorded: increases in the lateral root lengths
- concentration of optimal lateral root production ([1]; seeds submerged 10 seconds, 0-8000 ppm tested): 250 ppm
- effect on lateral root development [1, 9]: increased lateral root development
- concentration with highest lateral root development ([2]; roots washed out 5 days later): 5 ppm
- Severe phytotoxicity, application concentration ([2]; 0-2000 ppm tested): above 50 ppm
- % closed bolls [3, 10]: 56.7%
- % open bolls [3, 10]: 43.3%
- number bolls [3, 10]: 1096
- % closed bolls ([3]; Seed soak, 250 ppm on Day 1): 66.9%
- % open bolls ([3]; Seed soak, 250 ppm on Day 1): 33.1%
- number bolls ([3]; Seed soak, 250 ppm on Day 1): 1212
- number bolls ([3]; Seedling spray, 5 ppm at cotyledon-first leaf stage, Day 21): 1202
- % closed bolls ([3]; Seedling spray, 5 ppm, Day 21): 70.5%
- % open bolls ([3]; Seedling spray, 5 ppm, Day 21): 29.5%
- % increase over control [3, 10]: 1%
- % increase over control ([3]; Seed soak, 250 ppm on Day 1): 12%
- % increase over control ([3]; Seedling spray, 5 ppm, Day 21): 11%
- effect on number of healthy cotton bolls per plant [3, 9]: increased the number of healthy cotton bolls per plant
- Root Length AB Spray [4, 11]: 104.39%
- Root/Stem Ratio AB Spray [4, 11]: 138.67%
- Shoot Length AB Spray [4, 11]: 79.98%
- Root Length A Spray ([4]; 2.5 ppm ai at cotyledon stage): 91.86%
- Root/Shoot Ratio A Spray ([4]; 2.5 ppm ai at cotyledon stage): 94.53%
- Shoot Length A Spray ([4]; 2.5 ppm ai at cotyledon stage): 95.25%
- Root Length AB Spray [4, 12]: 97.39%
- Root/Stem Ratio AB Spray [4, 12]: 124.29%
- Shoot Length AB Spray [4, 12]: 90.62%
- Root Length A Spray ([4]; 5 ppm ai at cotyledon stage): 100.6%
- Root/Shoot Ratio A Spray ([4]; 5 ppm ai at cotyledon stage): 137.48%
- Shoot Length A Spray ([4]; 5 ppm ai at cotyledon stage): 80.12%
- Root Length AB Spray [4, 13]: 106.69%
- Root/Stem Ratio AB Spray [4, 13]: 119.08%
- Shoot Length AB Spray [4, 13]: 90.13%
- Root Length A Spray ([4]; 7.5 ppm ai at cotyledon stage): 97.46%
- Root/Shoot Ratio A Spray ([4]; 7.5 ppm ai at cotyledon stage): 105.16%
- Shoot Length A Spray ([4]; 7.5 ppm ai at cotyledon stage): 91.78%
- increase in the ratio of root length to stem length above the untreated level ([4]; Treatment A alone at 5 ppm): > 20%
- effect on ratio of root length to stem length ([4]; moderate concentrations): increases the ratio of root length to stem length
- increase in the ratio of root length to stem length above the untreated level ([4]; treatment A at 2.5 ppm together with treatment B): > 20%
- increase in the ratio of root length to stem length above the untreated level ([4]; treatment A at 5 ppm together with treatment B): > 20%
- root weight, Winter wheat (AB spray) (Winter wheat [5]; 2.5 ppm ai at stage 1 + 5 ppm 3 days after): 0.76 grams
- root weight, Winter wheat (A spray) (Winter wheat [5]; 2.5 ppm ai at stage 1): 0.91 grams
- root weight, Winter wheat (AB spray) (Winter wheat [5]; 5 ppm ai at stage 1 + 5 ppm 3 days after): 0.71 grams
- root weight, Winter wheat (A spray) (Winter wheat [5]; 5 ppm ai at stage 1): 0.69 grams
- root weight, Winter wheat (AB spray) (Winter wheat [5]; 7.5 ppm ai at stage 1 + 5 ppm 3 days after): 0.87 grams
- root weight, Winter wheat (A spray) (Winter wheat [5]; 7.5 ppm ai at stage 1): 0.72 grams
- root weight, Broccoli (AB spray) (Broccoli; [11]): 0.67 grams
- root weight, Broccoli (A spray) (Broccoli; 2.5 ppm ai at cotyledon stage): 0.68 grams
- root weight, Broccoli (AB spray) (Broccoli; [12]): 0.79 grams
- root weight, Broccoli (A spray) (Broccoli; 5 ppm ai at cotyledon stage): 0.8 grams
- root weight, Broccoli (AB spray) (Broccoli; [13]): 0.79 grams
- root weight, Broccoli (A spray) (Broccoli; 7.5 ppm ai at cotyledon stage): 0.76 grams
- increase in root weight above the untreated level (Broccoli; treatment A at 5 ppm, absence of treatment B): > 10%
- increase in root weight above the untreated level (Broccoli; treatment A at 5 ppm, presence of treatment B): > 10%
- increase in root weight above the untreated level (Broccoli; treatment A at 7.5 ppm, absence of treatment B): > 10%
- increase in root weight above the untreated level (Broccoli; treatment A at 7.5 ppm, presence of treatment B): > 10%
- root weight, Winter Wheat Seed Treat. (Winter wheat [6]; 2.5 ppm ai): 0.97 grams
- root weight, Winter Wheat Seed Treat. (Winter wheat [6]; 5 ppm ai): 0.81 grams
- root weight, Winter Wheat Seed Treat. (Winter wheat [6]; 7.5 ppm ai): 0.86 grams
- solubility in water [7]: weakly soluble in water; also recorded: poorly soluble in water
- stability [8]: stable across a wide pH range
